# In a melting point compilation (Tetko et al.; mined from patent text by program, amines drawn as free bases though some values may be those of a salt):
row,melting point,SMILES
1,109 to 111 °C,Cc1nc(-c2ccc(C#N)cc2)oc1C(=O)NCCCCN1CCC(c2ccc3c(c2OCCO)CCCC3)CC1
2,148 to 150 °C,O=C1CCC(=O)N1c1ncccn1
3,72 °C,O=C(CNC(=O)OCc1ccccc1)OCc1ccccc1
4,214 to 216 °C,CCOc1ccc(C(C)=O)cc1C(=O)Nc1c(C)cccc1C(N)=O
5,50 to 52 °C,O=C=Nc1cc(OCC(F)(F)F)ccc1OCC(F)(F)F
6,79 to 82 °C,N#Cc1ccc(-c2ccc(OCCCCCCC(=O)NO)cc2)cc1
7,245 to 248 °C,CNS(=O)(=O)c1cc(C(=O)O)cc(N2CCCC2)c1Oc1ccccc1
8,122 to 124 °C,S=C(NCCCCN(Cc1ccc(Br)cc1)c1ccccn1)NCCCn1ccnc1
9,241 to 244 °C,CC(C)(C#N)c1ccc(C(=O)Nc2cn3cc(-n4ccnc4)ccc3n2)cc1
10,145 to 146 °C,Cc1oc(-c2ccco2)nc1COc1ccc(COc2nn(Cc3ccccc3)cc2CO)cc1OCc1ccccc1
11,165 to 167 °C,Cc1noc(C)c1CN1CC2(COc3cc4c(cc32)OCO4)c2ccccc21 (stereo not given)
12,201 to 202 °C,Cc1nn(C2=NNN(S)C2N)c2c1CCCC2 (stereo not given)
13,> 300 °C,Nc1ccccc1-c1nnc(-c2ccc(C(=O)O)cc2)o1
14,128 to 133 °C,Nc1ncc(CCCCCc2cccc3ccccc23)c(N)n1
15,156 to 158 °C,CCOC(=O)c1nnn(-c2ccc(C3=NNC(=O)NC3C)cc2)c1C(=O)OCC (stereo not given)
16,120 °C,COc1ccc(CSc2nc(-c3ccccc3)n(Cc3cc4c(cc3Cl)OCO4)c2C=O)cc1
17,174 °C,CS(=O)(=O)c1ccc(-c2nn(Cc3ccc(F)cc3F)c(=O)cc2-c2ccc(Cl)cc2)cc1
18,235 to 239 °C,CCC12CCC3=C(CCc4cc(O)ccc43)C1CCC2=O (stereo not given)
19,297 to 300 °C,O=c1[nH]c2ccc(-c3cccnc3)cc2cc1Br
20,52 to 54 °C,O=S(=O)(Nc1ccc(Br)cc1)C(F)(F)F
21,69 to 70 °C,C=CCOc1ccc(C[C@H](NC(C)=O)C(=O)OCC)cc1
22,133 to 134 °C,CCC(COC)n1nnc2c(Nc3ccc(C(C)=O)cc3Br)nc(C)nc21 (stereo not given)
23,141 °C,COCCOc1cc(Oc2ccccc2)cnc1Nc1nccs1

row,melting point,SMILES
1,181 °C,O=C(NC(=O)c1ccc(F)cc1Cl)Nc1ccc(C(F)(F)F)c(F)c1
2,121 °C,Cc1ccc(-c2cc(C(F)(F)F)n3ncc(C#N)c3n2)cc1
3,> 245 °C,CN1CCN(Cn2cncc2-c2cc3c(Nc4ccc5[nH]ccc5c4)c(C#N)cnc3s2)CC1
4,239 to 240 °C,O=c1cc(-c2ccncc2)nc2n1CC(F)(F)CN2
5,84 to 86 °C,COc1ccc2c(c1)C(=NOCCN(C)C)c1c-2c(N2CCNCC2)nc2ccccc12
6,198 to 200 °C,CC(C)(C)OC(=O)c1nc(-c2ccc(Cl)cc2Cl)n(-c2ccc(Cl)cc2)c1Br
7,187 to 188 °C,O=C(O)c1ccnc(-c2cccc3oc(Cc4cccc(C(F)(F)F)c4)cc23)c1
8,100 °C,CSCC(=O)Nc1ccccc1
9,120 to 125 °C,CSC1=NC=CC(NN)(SC)N1 (stereo not given)
10,332 to 336 °C,N#CCCn1c2ccc(O)cc2c2c3c(c(-c4ccccc4Cl)cc21)C(=O)NC3=O
11,100 to 105 °C,CCc1nn(CCN)c(CC)c1Cc1cc(C#N)cc(C#N)c1
12,133 to 135 °C,Cn1cc(C(=O)NCc2ccc(Cl)cc2)c(=O)c2cc(CN(CCO)Cc3ccccc3)ccc21
13,63 to 66 °C,CCn1nc(OCC(=O)C(C)(C)C)c(-c2ccc(S(C)(=O)=O)cc2)c1-c1ccc(F)cc1
14,171 to 173 °C,Cc1ccc(-c2c(CNC(=O)OC(C)(C)C)n(CC(C)C)c(=O)c3ccc(/C=C/C(=O)O)cc23)cc1
15,140 °C,CCC(=O)Nc1ccc(C)c(O)c1C
16,69 to 73 °C,O=C(Cl)c1ccc(Cl)c(OCCn2cnnn2)c1Cl
17,255 to 260 °C,CC(=O)c1cc([N+](=O)[O-])c(N)cc1C#N
18,97 °C,COc1ccc2c(CN(C)C)cc(=O)oc2c1
19,138 to 140 °C,CCc1ccc(C=O)nc1
20,191 to 193 °C,CNc1nc(C)c(-c2ccnc(Nc3ccc(Cl)c(CO)c3)n2)s1
21,230 to 235 °C,CCC1(O)C(=O)OCc2c1cc1n(c2=O)Cc2cc3cc(O)ccc3nc2-1 (stereo not given)
22,82 to 85 °C,CC1(C)C(C=NOCC2CC2)C1C(=O)O (stereo not given)
23,141 to 142 °C,CC(=O)NCc1ccc(CN2CCN(c3ccc(F)cc3)CC2)cc1Cl

row,melting point,SMILES
1,184 to 186 °C,O=S(=O)(c1ccccc1)N1CCC(Nc2nc(Cl)nc(N3CCCC3)n2)CC1
2,227 to 233 °C,O=C(NCCN1CCOCC1)c1ccc2cc(C(=O)O)[nH]c2c1
3,135 to 136 °C,CC(=O)c1c(CO[N+](=O)[O-])n(C(C)=O)c(=O)n1C(C)=O
4,54 to 57 °C,CC(CO)Oc1cc(-n2nc3n(c2=O)CCCC3)c(Cl)cc1Cl (stereo not given)
5,124 to 126 °C,CC(C)C1(C#N)c2ccccc2C=CN1C(=O)c1ccccc1 (stereo not given)
6,162 to 163 °C,Cc1c(NC(=O)CC(C)(C)C)cc2c(c1C)OC(C)(C)C2c1ccc(CO)cc1 (stereo not given)
7,194 to 196 °C,CC(=O)N1CCC(C(=O)Nc2ccccc2Oc2ccc(Cl)cc2Cl)CC1
8,> 350 °C,FC(F)(F)c1ccccc1N=C1CCc2cc3c(nc21)C(=Nc1ccccc1C(F)(F)F)CC3
9,47 to 48 °C,Fc1ccc(C(F)(F)C(F)(F)c2ccccc2)c(Br)c1
10,91 °C,CSC1=NS(=O)(=O)CCCS1
11,198 to 200 °C,COc1ccc(-c2[nH]c(-c3cccc4ccccc34)nc2C(=O)Nc2nccs2)cc1
12,194 to 200 °C,CC(C(=O)O)(c1ccccc1)N1CCC(c2noc3cc(F)ccc23)CC1 (stereo not given)
13,96 to 97 °C,CC(=O)NC(Cc1ccccc1)C(C)=O (stereo not given)
14,207 to 215 °C,O=C(Nc1ccccc1C(=O)NCCc1ncc[nH]1)c1ccc(C(F)(F)F)cc1
15,60 °C,COC(=O)Cc1ccc(OCCNC(=O)C2Cc3ccccc3N2S(=O)(=O)c2ccc(-c3cccc(C(F)(F)F)c3)c(Cl)c2)cc1 (stereo not given)
16,169 to 171 °C,COc1cc(-c2ncn(-c3cc(OC)c(OC)c(OC)c3)c2-c2cc(OC)c(OC)c(OC)c2)cc(OC)c1OC
17,175 to 177 °C,Cc1cc(-n2ccc(OCC3CC3)cc2=O)sc1C(=O)NCc1ccccc1
18,230 to 232 °C,COc1cc(N2CCN([C@H]3CC[C@H](c4cn(C)c5ccc(C#N)cc54)CC3)CC2)c2nccc(C)c2c1
19,66 to 67 °C,Cc1cccc(C(C)C)c1NC(=O)CCCCCBr
20,108 to 111 °C,CS(=O)(=O)c1ccc(-c2cnn(CC(F)(F)F)c(=O)c2SCc2ccccc2)cc1
21,95 to 96 °C,CC(C)COCCOc1ccc(OCC(O)CNCCNC(=O)N2CCOCC2)cc1 (stereo not given)
22,174 to 177 °C,COc1cc(OC)nc(NC(=O)NS(=O)(=O)Cc2ccccc2-c2nnc(SC)o2)n1

row,SMILES,melting point
1,CN1C(=O)C(C)(C)N=C(c2ccccc2F)c2cc(NC(=O)OCc3ccccc3)cc(Cl)c21,125 to 127 °C
2,O=c1c2cc(O)ccc2nc(C(S)c2ncnc3[nH]cnc23)n1-c1ccccc1Cl (stereo not given),186 to 214 °C
